Results reported in patent publication US6737383B1, “Herbicidal oxadiazolidines” (priority 1999, dated 2004).

Legend:
[1] = tested on: wild oat; assay: Test B pre/postemergence wild oat; type: in vivo, Avena fatua
In short: (§1)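 Herbicidal effect was estimated by eye on a ten-point control scale after plants spent twelve to sixteen days in a greenhouse following soil or foliar treatment. Foliar sprays targeted plants at one to four leaves; all doses were formulated in a non-phytotoxic solvent with surfactant.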

[2] = tested on: wheat; assay: Test B pre/postemergence wheat; type: in vivo, Triticum aestivum
In short: as §1

[3] = tested on: pigweed; assay: Test B pre/postemergence pigweed; type: in vivo, Amaranthus retroflexus
In short: as §1

[4] = tested on: corn; assay: Test B pre/postemergence corn; type: in vivo, Zea mays
In short: as §1

[5] = tested on: cocklebur; assay: Test B pre/postemergence cocklebur; type: in vivo, Xanthium strumarium
In short: as §1

[6] = tested on: duck salad; assay: Test B flood test duck salad; type: in vivo, Heteranthera limosa
In short: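 Read-out is a visual response score from 0 (no effect) to 10 (complete control), assigned by comparison with untreated controls. Treatment was applied at the 2-leaf stage, and plants stayed in the greenhouse for twelve to sixteen days before scoring.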

[7] = tested on: morningglory; assay: Test B pre/postemergence morningglory; type: in vivo, Ipomoea hederacea
In short: as §1

[8] = tested on: velvetleaf; assay: Test B pre/postemergence velvetleaf; type: in vivo, Abutilon theophrasti
In short: as §1

[9] = tested on: blackgrass; assay: Test B pre/postemergence blackgrass; type: in vivo, Alopecurus myosuroides; conditions: Postemergence
In short: as §1

[10] = Postemergence, Rate 1000 g/ha, scale 0 to 10 (0 no effect, 10 complete control)
[11] = Preemergence, Rate 62 g/ha, scale of 0 to 10 where 0 is no effect and 10 is complete control
[12] = Preemergence, Rate 125 g/ha, 0 is no effect, 10 is complete control
[13] = Preemergence, Rate 250 g/ha, scale 0 to 10, 0 is no effect, 10 is complete control
[14] = Preemergence, Rate 500 g/ha, scale 0 to 10 (0 no effect, 10 complete control)
[15] = Rate 250 g/ha, Postemergence, scale 0 to 10, 0 is no effect, 10 is complete control
[16] = Rate 500 g/ha, Postemergence, scale 0 to 10
[17] = Rate 1000 g/ha, Preemergence, scale 0 to 10 (0 no effect, 10 complete control)
[18] = Rate 2000 g/ha, Postemergence, scale 0 to 10
[19] = Rate 2000 g/ha, Preemergence, scale 0 to 10
[20] = Postemergence, Rate 125 g/ha, scale of 0 to 10 where 0 is no effect and 10 is complete control
[21] = Rate 62 g/ha, Postemergence, scale of 0 to 10 where 0 is no effect and 10 is complete control

## CC(C)N(C(=O)n1oc(=O)n(N(C)c2ccccc2)c1=O)c1ccc(F)cc1 [Compound 177]
[1]; [10]
  Wild oats plant response rating: 2
[1]; [11]
  Wild oats plant response rating: 0
[1]; [12]
  Wild oats plant response rating (0 to 10 scale): 0
[1]; [13]
  Wild oats plant response rating: 0
[1]; [14]
  Wild oats plant response rating: 2
[1]; [15]
  Plant response rating, Wild oats: 0
[1]; [16]
  Wild oats plant response rating: 0
[1]; [17]
  Plant response rating, Wild oats: 10
[1]; [18]
  Wild oats plant response rating: 2
[1]; [19]
  Wild oats plant response rating: 10
[2]; [10]
  Wheat plant response rating: 3
[2]; [11]
  Wheat plant response rating: 0
[2]; [12]
  Wheat plant response rating (0 to 10 scale): 0
[2]; [13]
  Wheat plant response rating: 0
[2]; [14]
  Wheat plant response rating: 0
[2]; [15]
  Plant response rating, Wheat: 0
[2]; [16]
  Wheat plant response rating: 4
[2]; [17]
  Plant response rating, Wheat: 0
[2]; [18]
  Wheat plant response rating: 3
[2]; [19]
  Wheat plant response rating: 2
[3]; [20]
  Redroot pigweed plant response rating: 0
[3]; [10]
  Redroot pigweed plant response rating: 2
[3]; [11]
  Redroot pigweed plant response rating: 0
[3]; [12]
  Redroot pigweed plant response rating (0 to 10 scale): 0
[3]; [13]
  Redroot pigweed plant response rating: 0
[3]; [14]
  Redroot pigweed plant response rating: 0
[3]; [21]
  Redroot pigweed plant response rating: 0
[3]; [15]
  Plant response rating, Redroot pigweed: 0
[3]; [16]
  Redroot pigweed plant response rating: 3
[3]; [17]
  Plant response rating, Redroot pigweed: 0
[3]; [18]
  Redroot pigweed plant response rating: 3
[3]; [19]
  Redroot pigweed plant response rating: 0
[4]; [20]
  Corn plant response rating: 0
[4]; [10]
  Corn plant response rating: 0
[4]; [11]
  Corn plant response rating: 0
[4]; [12]
  Corn plant response rating (0 to 10 scale): 0
[4]; [13]
  Corn plant response rating: 0
[4]; [14]
  Corn plant response rating: 0
[4]; [21]
  Corn plant response rating: 0
[4]; [15]
  Plant response rating, Corn: 0
[4]; [16]
  Corn plant response rating: 0
[4]; [17]
  Plant response rating, Corn: 0
[4]; [18]
  Corn plant response rating: 0
[4]; [19]
  Corn plant response rating: 0
[5]; [20]
  Cocklebur plant response rating: 0
[5]; [10]
  Cocklebur plant response rating: 0
[5]; [11]
  Cocklebur plant response rating: 0
[5]; [12]
  Cocklebur plant response rating (0 to 10 scale): 0
[5]; [13]
  Cocklebur plant response rating: 0
[5]; [14]
  Cocklebur plant response rating: 0
[5]; [21]
  Cocklebur plant response rating: 0
[5]; [15]
  Plant response rating, Cocklebur: 0
[5]; [16]
  Cocklebur plant response rating: 3
[5]; [18]
  Cocklebur plant response rating: 0
[5]; [19]
  Cocklebur plant response rating: 2
[6]; Postemergence (flood test species), Rate 125 g/ha, scale of 0 to 10 where 0 is no effect and 10 is complete control
  Ducksalad plant response rating: 0
[6]; Rate 62 g/ha, Postemergence section, flood test species, scale of 0 to 10 where 0 is no effect and 10 is complete control
  Ducksalad plant response rating: 0
[6]; Rate 250 g/ha, Postemergence (flood test), scale 0 to 10, 0 is no effect, 10 is complete control
  Plant response rating, Ducksalad: 2
[6]; Rate 250 g/ha, Pre-emergence, flood-test species, scale 0 to 10, 0 is no effect, 10 is complete control
  Ducksalad plant response rating: 0
[6]; Rate 500 g/ha, headed Pre-emergence (flood test species), scale 0 to 10 (0 no effect, 10 complete control)
  Plant response rating, Ducksalad: 0
[6]; Rate 500 g/ha, listed under Postemergence (flood test species), scale 0 to 10
  Ducksalad plant response rating: 2
[6]; Rate 1000 g/ha, Pre-emergence (as headed), scale 0 to 10
  Ducksalad plant response rating: 0
[6]; Rate 2000 g/ha, Pre-emergence (as headed), scale 0 to 10
  Ducksalad plant response rating: 0
[7]; [20]
  Morningglory plant response rating: 0
[7]; [10]
  Morningglory plant response rating: 1
[7]; [11]
  Morningglory plant response rating: 0
[7]; [12]
  Morningglory plant response rating (0 to 10 scale): 0
[7]; [13]
  Morningglory plant response rating: 0
[7]; [14]
  Morningglory plant response rating: 0
[7]; [21]
  Morningglory plant response rating: 0
[7]; [15]
  Plant response rating, Morningglory: 2
[7]; [16]
  Morningglory plant response rating: 4
[7]; [17]
  Plant response rating, Morningglory: 0
[7]; [18]
  Morningglory plant response rating: 1
[7]; [19]
  Morningglory plant response rating: 0
[8]; [10]
  Velvetleaf plant response rating: 0
[8]; [11]
  Velvetleaf plant response rating: 0
[8]; [12]
  Velvetleaf plant response rating (0 to 10 scale): 0
[8]; [13]
  Velvetleaf plant response rating: 0
[8]; [14]
  Velvetleaf plant response rating: 0
[8]; [15]
  Plant response rating, Velvetleaf: 0
[8]; [16]
  Velvetleaf plant response rating: 3
[8]; [17]
  Plant response rating, Velvetleaf: 0
[8]; [18]
  Velvetleaf plant response rating: 4
[8]; [19]
  Velvetleaf plant response rating: 3
[9]; Rate 125 g/ha, scale of 0 to 10 where 0 is no effect and 10 is complete control
  Blackgrass plant response rating: 0
[9]; Rate 1000 g/ha, scale 0 to 10 (0 no effect, 10 complete control)
  Blackgrass plant response rating: 3
